Details: from C=CCCC(=O)Nc1cc(NC(=O)OC)ccc1-c1nnc(Cl)cc1C(CC=C)NC(=O)OC(C)(C)C; rcm bond; 12-membered ring; Grubbs II (0.3 eq); DCM; 6.6 mM; 40.0 °C; 1.0 h

COC(=O)Nc1ccc2c(c1)NC(=O)CCC=CCC(NC(=O)OC(C)(C)C)c1cc(Cl)nnc1-2 (stereo not shown)
ring closure, isolated yield: 56%

Source: patent publication US10487086
